Assay results from ChEMBL document CHEMBL1201862, “PubChem BioAssay data set” (2004).
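Method: 48-hour compound exposure of cells in 96-well plates, five concentrations, linear interpolation of endpoints. Here, GI50 denotes the concentration required for 50% inhibition of growth.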 The source made the active and inactive calls. Rule as the data show it: active = GI50 up to about 1.1 µM and inactive = higher.

Columns and labels:
Assay in all cases: inhibition of tumour cell growth, NCI panel, 48 h
OVCAR-5 = test system: OVCAR-5
HT-29 = test system: HT-29
U-251 = test system: U-251
SF-295 = test system: SF-295
UACC-62 = test system: UACC-62
CAKI-1 = test system: CAKI-1
SK-OV-3 = test system: SK-OV-3
OVCAR-3 = test system: OVCAR-3
COLO 205 = test system: COLO 205
A549 = test system: A549
KM12 = test system: KM12
MOLT-4 = test system: MOLT-4
IGROV-1 = test system: IGROV-1
HOP-92 = test system: HOP-92
SN12C = test system: SN12C
HCT-116 = test system: HCT-116
EKVX = test system: EKVX
SK-MEL-2 = test system: SK-MEL-2
SF-268 = test system: SF-268
HOP-62 = test system: HOP-62

Measured: GI50

O=C1CCCCC[C@]12SC[C@H]1CON=C12
inactive: OVCAR-5 > 100 µM | HT-29 38.3 µM | U-251 12.3 µM | SF-295 > 100 µM | UACC-62 14.5 µM | CAKI-1 22.2 µM | SK-OV-3 37.4 µM | OVCAR-3 89.7 µM | COLO 205 29.2 µM | A549 37.1 µM | KM12 60.3 µM | MOLT-4 36.3 µM | IGROV-1 47.5 µM | HOP-92 12.9 µM | SN12C 23.1 µM | HCT-116 35.2 µM | EKVX 31 µM

Cc1nc(-c2cccnc2)sc1C(=O)CC(=O)C(=O)Nc1cccc(NC(=O)C(=O)CC(=O)c2sc(-c3cccnc3)nc2C)n1
inactive: OVCAR-5 > 100 µM | HT-29 > 100 µM | U-251 > 100 µM | SF-295 > 100 µM | UACC-62 > 100 µM | CAKI-1 > 100 µM | SK-OV-3 > 100 µM | OVCAR-3 > 100 µM | COLO 205 > 100 µM | A549 > 100 µM | KM12 > 100 µM | MOLT-4 > 100 µM | IGROV-1 > 100 µM | SK-MEL-2 > 100 µM | HOP-92 > 100 µM | SN12C > 100 µM | HCT-116 > 100 µM | SF-268 > 100 µM | EKVX > 100 µM

COC(=O)C1CCC(=O)N1C(=O)Cc1ccc(OC)cc1 (stereo unspecified)
inactive: OVCAR-5 > 100 µM | HT-29 > 100 µM | U-251 > 100 µM | SF-295 > 100 µM | UACC-62 > 100 µM | CAKI-1 > 100 µM | SK-OV-3 > 100 µM | OVCAR-3 > 100 µM | COLO 205 > 100 µM | A549 > 100 µM | KM12 > 100 µM | IGROV-1 > 100 µM | HOP-92 > 100 µM | SN12C > 100 µM | HCT-116 > 100 µM | SF-268 > 100 µM | EKVX > 100 µM

COc1ccc(C2C(Cl)C(=O)N2NC(=O)c2ccccc2O)cc1 (stereo unspecified)
inactive: HT-29 > 100 µM | U-251 > 100 µM | SF-295 > 100 µM | UACC-62 > 100 µM | SK-OV-3 > 100 µM | OVCAR-3 > 100 µM | HOP-62 > 100 µM | COLO 205 > 100 µM | A549 > 100 µM | KM12 > 100 µM | MOLT-4 > 100 µM | IGROV-1 > 100 µM | SK-MEL-2 > 100 µM | HOP-92 > 100 µM | SN12C > 100 µM | HCT-116 > 100 µM | SF-268 > 100 µM | EKVX > 100 µM
